Tests used:
NCI-H460 tumor [1] = test: PET imaging in NCI-H460 tumor bearing nude-mice; format: in vivo; settings: PET at 60 min p.i., approx. 10 MBq
Method: a) [^18F]-1 was examined in NCI-H460 tumor bearing nude-mice using PET-imaging. Approx. 10 MBq of the tracer was injected into the animals and PET images were acquired at 60 min p.i. for 10 minutes. The H460-tumor was very well visible in the images with 3.6% ID/g as was determined by region of interest (ROI) analysis. Except of some uptake into the bladder due to the renal excretion, no uptake into non target tissues was observed.
b) [^18F]-12 was examined in the same animal model in mice as described above. Approx. 10 MBq was injected into the animals and PET images were obtained at 60 min p.i. for 10 min. The NCI-H460 tumor was very well visible and uptake of 2.7% ID/g into the tumor was calculated by ROI analysis. Except of some uptake into the gallbladder due to a partial hepatobiliary clearance of this derivative, the majority of activity is excreted renally, resulting in a strong PET signal from the bladder. No uptake in other non-target tissues was observed.

NCI-H460 tumor [2] = test: PET imaging in NCI-H460 tumor bearing nude-rats; format: in vivo
Outline: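 NCI-H460 cells were inoculated into the right flank of nude rats (RH-Foxn1 nu/nu) 8 to 10 days before imaging. PET images were acquired for 10 minutes at 60 min after injection of approximately 10 MBq tracer. Tumor, liver and kidney activity was derived by ROI analysis as %ID/g.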

xCT (SLC7A11) = biological target: T1, xCT (SLC7A11) (Homo sapiens, UniProt Q9UPY5); test: Competition profile indicating uptake via xCT (SLC7A11); format: cell-based; settings: co-incubation with 1 mM cold competitors, NCI-H460 cells
T1 construct: NCI-H460 tumor cells were co-incubated with the F-18 labeled tracer and several cold derivatives; endogenous in cells; host or cells: NCI-H460 tumor cells
T1 sequence (Q9UPY5 1-501): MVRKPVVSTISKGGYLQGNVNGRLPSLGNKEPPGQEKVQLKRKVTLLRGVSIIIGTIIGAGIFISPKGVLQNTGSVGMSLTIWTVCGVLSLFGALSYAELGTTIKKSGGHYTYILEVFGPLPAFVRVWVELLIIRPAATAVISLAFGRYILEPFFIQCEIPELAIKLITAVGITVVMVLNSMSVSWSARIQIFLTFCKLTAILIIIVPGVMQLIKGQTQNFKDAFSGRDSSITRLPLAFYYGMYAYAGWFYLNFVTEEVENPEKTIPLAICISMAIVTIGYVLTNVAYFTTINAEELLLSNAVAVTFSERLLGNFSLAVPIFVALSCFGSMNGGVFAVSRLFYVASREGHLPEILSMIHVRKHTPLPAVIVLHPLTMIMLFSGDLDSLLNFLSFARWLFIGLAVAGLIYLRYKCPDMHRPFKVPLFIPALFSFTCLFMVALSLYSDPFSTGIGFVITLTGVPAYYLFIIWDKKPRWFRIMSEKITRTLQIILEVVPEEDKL
T1 sequence (P08195 1-529 partner): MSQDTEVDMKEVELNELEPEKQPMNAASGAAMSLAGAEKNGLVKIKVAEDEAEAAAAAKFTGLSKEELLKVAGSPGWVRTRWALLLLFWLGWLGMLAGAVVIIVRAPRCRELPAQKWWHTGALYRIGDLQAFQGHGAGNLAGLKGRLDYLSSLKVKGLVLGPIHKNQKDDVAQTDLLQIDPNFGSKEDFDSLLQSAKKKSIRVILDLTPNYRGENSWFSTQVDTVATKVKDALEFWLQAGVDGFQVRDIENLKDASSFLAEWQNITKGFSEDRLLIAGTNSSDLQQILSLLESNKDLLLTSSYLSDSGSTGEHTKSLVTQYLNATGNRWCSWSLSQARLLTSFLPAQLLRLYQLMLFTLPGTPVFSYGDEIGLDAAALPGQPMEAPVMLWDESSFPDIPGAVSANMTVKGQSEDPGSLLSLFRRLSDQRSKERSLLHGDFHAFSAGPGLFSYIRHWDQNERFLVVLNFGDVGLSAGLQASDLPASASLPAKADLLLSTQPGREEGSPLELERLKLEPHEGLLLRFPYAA
Method: For determination of the responsible uptake mechanism, NCI-H460 tumor cells were co-incubated with the F-18 labeled tracer and several cold derivatives. These derivatives were used at a concentration of 1 mM, which is a large excess compared to the tracer. L-Glutamic acid, L-cystine, Carboxyphenylglycine (CPG) were used as competitors. In addition, also D-Glutamic acid, as well as L-aspartic acid and D-aspartic acid were used in this competition experiments. […] The same experiments were performed using [^18F]-1, [^18F]-4, [^18F]-9, [^18F]-8, [^18F]-25 and [^18F]-22.

SMILES: N[C@@H](CCC(Cc1ccc(OCC[18F])cc1)C(=O)O)C(=O)O (stereo partly drawn) [[^18F]-12] [(2S)-2-Amino-5-[4-(2-[^18F]fluoroethoxy)benzyl]hexanedioic acid]
- H460 tumor uptake by ROI analysis (NCI-H460 tumor [1]): 2.7 % ID/g
- Kidney (% ID/g at 1 h p.i.) (NCI-H460 tumor [2]; PET ROI analysis, 1 h p.i.): 0.9 % ID/g
- Liver (% ID/g at 1 h p.i.) (NCI-H460 tumor [2]; PET ROI analysis, 1 h p.i.): 0.8 % ID/g
- Tumor (Max % ID/g at 1 h p.i.) (NCI-H460 tumor [2]; PET ROI analysis, 1 h p.i.): 2.2 % ID/g
- Tumor (Mean % ID/g at 1 h p.i.) (NCI-H460 tumor [2]; PET ROI analysis, 1 h p.i.): 0.9 % ID/g
- H460 tumor uptake by ROI analysis (NCI-H460 tumor [2]; PET at 60 min after injection, approx. 10 MBq): 0.9 % ID/g
- competition profile / uptake mechanism of the tracer (xCT (SLC7A11)): specific uptake
